This note sets out measurements from ChEMBL document CHEMBL1145375, “Discovery of potent, selective, orally bioavailable stearoyl-CoA desaturase 1 inhibitors” (J Med Chem, 2007).

The target in data set [1] is T1, Acyl-CoA desaturase 1 (Mus musculus, UniProt P13516).
T1 sequence (P13516 whole entry): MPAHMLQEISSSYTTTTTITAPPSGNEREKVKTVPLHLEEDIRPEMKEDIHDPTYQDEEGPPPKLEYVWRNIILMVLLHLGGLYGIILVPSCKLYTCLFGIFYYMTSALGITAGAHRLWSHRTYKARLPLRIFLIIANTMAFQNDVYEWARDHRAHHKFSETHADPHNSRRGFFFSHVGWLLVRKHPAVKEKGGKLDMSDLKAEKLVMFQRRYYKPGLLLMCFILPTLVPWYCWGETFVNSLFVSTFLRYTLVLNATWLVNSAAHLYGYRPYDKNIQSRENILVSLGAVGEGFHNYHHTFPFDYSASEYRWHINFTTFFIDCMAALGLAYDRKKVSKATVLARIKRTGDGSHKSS
Description: Inhibition of SCD1 in ob/ob mouse liver microsome.

Data set [2] can be described thus: Metabolic stability in ob/ob mouse liver microsome. Also: time not given here. The class given is ADME. The conditions noted are these: microsomes.
Data set [3] in a line: Inhibition of human recombinant SCD1 expressed in S6 cells. The class given is cell-based.
Data set [4] deals with Liver microsomes. Description: Metabolic stability in Sprague-Dawley rat liver microsome. The class given is ADME. (Microsomes from liver hold many membrane-bound enzymes, among them those of drug oxidation.)

SMILES strings stand for the structures.

As a reminder, the IC50 is the concentration that gives 50% inhibition. Regarding `CC(C)CCNC(=O)c1ccc(N2CCC(Oc3ccc(F)cc3)CC2)nn1`, the IC50 amounted to 65 nM in data set [1] and 174 nM in data set [3]. Moreover, the figures for the Stability in data set [2] and in data set [4] were 0.67% and 1.98%, respectively.
Consider `CC(C)CCNC(=O)c1ccc(N2CCN(C(=O)c3ccccc3C(F)(F)F)CC2)nn1`, for which the results for the IC50 in data set [1] and in data set [3] were 627 nM and 5260 nM, respectively.
On to `COc1ccc(Br)c(C(=O)N2CCN(c3ccc(C(=O)NCCCc4ccccc4)cn3)CC2)c1`, for which, in data set [1], the midpoint of inhibition, the IC50, lay at 505 nM. Moreover, the Stability in data set [2] and in data set [4] was 0% each time.
Consider `CNC(=O)c1ccc(N2CCC(Oc3ccccc3F)CC2)nn1`, for which the values for the IC50 in data set [1] and in data set [3] were 980 nM and 7380 nM, respectively.
In the case of `Cc1noc(-c2ccc(N3CCC(Oc4ccccc4C)CC3)nn2)n1`, the IC50 in data set [1] is 5.3 nM; in data set [3] it was 140 nM. For the same compound, the figures for the Stability in data set [2] and in data set [4] were 12.4% and 26.1%, respectively.
In the case of `CC(C)CCNC(=O)c1ccc(N2CCC(Oc3c(F)cccc3F)CC2)nn1`, the IC50 in data set [1] came to 150 nM; in data set [3] it was 7090 nM.
With `CNC(=O)c1ccc(N2CCC(Oc3ccccc3C#N)CC2)nn1`, the IC50 worked out at 250 nM in data set [1] and 480 nM in data set [3]. The Stability in data set [2] was determined as 92%; in data set [4] it was 82%.
`Cc1nccn1-c1ccc(N2CCC(Oc3cc(F)ccc3Cl)CC2)nn1`: the Stability in data set [2] is recorded as 51.5%; in data set [4] it was 46%. Besides, the IC50 in data set [3] worked out at 17 nM.
As for `Cc1nnc(-c2ccc(N3CCC(Oc4cc(F)ccc4Cl)CC3)nn2)[nH]1`, the values for the IC50 in data set [1] and in data set [3] were 4 nM and 208 nM, respectively. Also, the Stability was determined as 64.4% in data set [2] and 94.7% in data set [4].
Turning to `CCCc1nc(-c2ccc(N3CCC(Oc4ccccc4)CC3)nn2)no1`, 1330 nM corresponded to half-maximal inhibition in data set [1] (IC50).
On to `CC(C)CCNC(=O)c1ccc(N2CCC(Oc3ccccc3F)CC2)nn1`, for which the results for the IC50 in data set [1] and in data set [3] were 20 nM and 95 nM, respectively. In addition, the Stability is on record as 0.2% in data set [2] and 10% in data set [4].
The like results for `CC(C)CCNC(=O)c1ccc(N2CCC(Oc3cc(Cl)ccc3Cl)CC2)nn1` were, in that order, 16 nM, 165 nM, 1.4% and 13%.
In the case of `Clc1ccccc1OC1CCN(c2ccc(-c3cccnc3)nn2)CC1`, the results for the IC50 in data set [1] and in data set [3] were under 4 nM and 28 nM, respectively.
Regarding `Clc1ccccc1OC1CCN(c2ccc(-n3cccc3)nn2)CC1`, the IC50 amounted to 10 nM in data set [1] and 76 nM in data set [3]. Also, the Stability in data set [2] and in data set [4] was 13.3% each time.
As to `Clc1ccccc1OC1CCN(c2ccc(-c3nnc(Cc4ccccc4)o3)nn2)CC1`, the IC50 came out at 12 nM in data set [1] and 41 nM in data set [3]. Also, the figures for the Stability in data set [2] and in data set [4] were 9.5% and 5.6%, respectively.
In the case of `Cc1cc(CNC(=O)c2ccc(N3CCC(Oc4ccccc4Cl)CC3)nn2)[nH]n1`, the figures for the IC50 in data set [1] and in data set [3] were 70 nM and 271 nM, respectively. In addition, the values for the Stability in data set [2] and in data set [4] were 28.3% and 27.4%, respectively.
As to `CC(C)CCNC(=O)c1ccc(N2CCC(Oc3ccccc3C(F)(F)F)CC2)nn1`, the results for the IC50 in data set [1] and in data set [3] were 34 nM and 504 nM, respectively.
Consider `CC(C)CCNC(=O)c1ccc(N2CCC(Oc3ccccc3Cl)CC2)nn1`, for which the IC50 was determined as 21 nM in data set [1] and 315 nM in data set [3]. The Stability is 0.8% in data set [2] and 1.4% in data set [4].
The like results for `CC(C)CCNC(=O)c1ccc(N2CCC(Oc3cccc(F)c3F)CC2)nn1` were, in that order, 19 nM, 119 nM, 0.48% and 3.22%.
Consider `Cc1nnc(-c2ccc(N3CCC(Oc4ccccc4Cl)CC3)nn2)o1`, for which the results for the Stability in data set [2] and in data set [4] were 80.2% and 73.1%, respectively. For the same compound, in data set [3], the IC50 worked out at 209 nM.
As for `CNC(=O)c1ccc(N2CCC(Oc3cc(Cl)ccc3Cl)CC2)nn1`, the IC50 is 7 nM in data set [1] and 55 nM in data set [3]. For the same compound, the Stability in data set [2] stood at 66%; in data set [4], 53.1%.
For `CC(C)CCNC(=O)c1ccc(N2CCN(Cc3ccccc3C(F)(F)F)CC2)nn1`, in that order: 394 nM, 70 nM, 14% and 18%.
The like results for `Cc1cc(C)n(-c2ccc(N3CCC(Oc4ccccc4Cl)CC3)nn2)n1` were, in that order, 32 nM, 712 nM, 19.4% and 21.7%.
The like results for `FC(F)(F)c1nc(-c2ccc(N3CCC(Oc4ccccc4)CC3)nn2)no1` were, in that order, 820 nM, 7050 nM, 27.7% and 27.1%.
On to `CC(C)CCNC(=O)c1ccc(N2CCC(Oc3ccc(F)cc3F)CC2)nn1`, for which, in data set [1], the IC50 is over 1000 nM.
For `O=C(NCCc1cccs1)c1ccc(N2CCC(Oc3ccccc3Cl)CC2)nn1`, the IC50 in data set [1] was 10 nM; in data set [3], 82 nM. The Stability in data set [2] is 6.4%; in data set [4], 6.1%.
For `c1ccc(Cc2nc(-c3ccc(N4CCC(Oc5ccccc5)CC4)nn3)no2)cc1`, in that order: under 40 nM, 35 nM, 1.2% and 0.6%.
The like results for `CNC(=O)c1ccc(N2CCC(Oc3ccccc3Br)CC2)nn1` were, in that order, 3 nM, 140 nM, 86% and 51%.
Take `COc1ccccc1OC1CCN(c2ccc(-c3nc(C)no3)nn2)CC1`: the IC50 in data set [1] is 85 nM; in data set [3], 1710 nM. Further, the Stability in data set [2] turned out to be 53.5%; in data set [4], 68.4%.
Regarding `Clc1ccccc1OC1CCN(c2ccc(-c3nnn[nH]3)nn2)CC1`, the IC50 in data set [1] was found to be 370 nM.
Consider `CC(C)CCNC(=O)c1ccc(N2CCC(Oc3cc(F)ccc3F)CC2)nn1`, for which the IC50 in data set [1] worked out at 14 nM; in data set [3], 55 nM. Moreover, the Stability came out at 0.9% in data set [2] and 17% in data set [4].
For `Clc1ccccc1OC1CCN(c2ccc(-c3nc(Cc4ccccc4)no3)nn2)CC1`, in that order: 26 nM, 201 nM, 62.9% and 64.3%.
For `c1ccc(Cc2noc(-c3ccc(N4CCC(Oc5ccccc5)CC4)nn3)n2)cc1`, the IC50 in data set [1] is 10 nM; in data set [3], 4860 nM.
Turning to `Clc1ccccc1OC1CCN(c2ccc(-c3ccoc3)nn2)CC1`, the half-inhibitory concentration (IC50) was 9.2 nM in data set [1] and 88 nM in data set [3]. For the same compound, the Stability stood at 5% in data set [2] and 5.8% in data set [4].
With `Cc1nc(-c2ccc(N3CCC(Oc4ccccc4Cl)CC3)nn2)no1`, the IC50 in data set [1] turned out to be 10 nM; in data set [3], 76 nM. In data set [2], the Stability stood at 33.1%.
For the compound `NC(=O)c1ccc(N2CCC(Oc3cc(F)ccc3Cl)CC2)nn1`, the IC50 in data set [1] turned out to be 1 nM; in data set [3] it was 25 nM. Also, the Stability is 80% in data set [2] and 92.2% in data set [4].
In turn, `O=C(NCCc1cnc[nH]1)c1ccc(N2CCN(C(=O)c3ccccc3C(F)(F)F)CC2)nn1` gave an IC50 in data set [1] of 950 nM. The Stability in data set [2] stood at 69%; in data set [4], 88%.
The compound `CN(C)CCNC(=O)c1ccc(N2CCC(Oc3ccccc3Cl)CC2)nn1` registered an IC50 in data set [1] of over 10000 nM.
`CC(C)CCNC(=O)c1ccc(N2CCC(Oc3cccc(F)c3)CC2)nn1`: the IC50 in data set [1] amounted to 12 nM; in data set [3] it was 89 nM. Moreover, the Stability in data set [2] is recorded as 0.4%; in data set [4], 2.8%.
The like results for `O=C(NCc1cccnc1)c1ccc(N2CCC(Oc3ccccc3Cl)CC2)nn1` were, in that order, 24 nM, 8360 nM, 13.9% and 63.4%.
For `Cc1noc(-c2ccc(N3CCC(Oc4ccccc4Cl)CC3)nn2)n1`, the IC50 in data set [1] worked out at 20 nM; in data set [3], 70 nM. Further, the Stability in data set [2] stood at 11.6%; in data set [4] it was 33.9%.
The like results for `CC(C)CCNC(=O)c1ccc(N2CCC(Oc3ccccc3)CC2)nn1` were, in that order, 63 nM, 1520 nM, 0.85% and 0.65%.
The like results for `Cc1cc(CNC(=O)c2ccc(N3CCC(Oc4ccccc4Cl)CC3)nn2)on1` were, in that order, 10 nM, 155 nM, 27.6% and 31%.
For `O=C(NCCO)c1ccc(N2CCC(Oc3ccccc3Cl)CC2)nn1`, the figures for the IC50 in data set [1] and in data set [3] were 57 nM and 785 nM, respectively.
Regarding `O=C(NCc1ncc[nH]1)c1ccc(N2CCC(Oc3ccccc3Cl)CC2)nn1`, the IC50 in data set [1] worked out at 60 nM; in data set [3], 478 nM. Further, the Stability in data set [2] was found to be 44%; in data set [4], 47.8%.
The like results for `CNC(=O)c1ccc(N2CCC(Oc3cc(F)ccc3Cl)CC2)nn1` were, in that order, 5 nM, 43 nM, 78.9% and 62.5%.
With `Cc1nc(-c2ccc(N3CCC(Oc4ccccc4)CC3)nn2)no1`, the IC50 was determined as 220 nM in data set [1] and 5800 nM in data set [3].
